For data set [1] the following is noted: NCI Database; cited from earlier work.
Data set [2] has as its system colon cancer organoids. The data set is described as follows: Half growth inhibitory concentration (GI50): serial dilutions, 72 hours, MTS assay. It counts as cell-based, human (patient). Here is the method:
A patient was diagnosed with colon cancer and mFOLFOX6 chemotherapeutic treatment was prescribed. To obtain primary organoid culture of colon cancer cells a sample of resected lung metastasis was used. Tissue was cut into small fragments and placed immediately into MACS tissue storage solution (Miltenyi Biotec, Germany) and stored for no more than 24 hours at 4° C. Then, the tissue fragments were transferred to a tube for tissue homogenization gentleMACS C Tube (Miltenyi Biotec, Germany) and enzyme cocktail from Tumor Dissociation Kit human (Miltenyi Biotec, Germany) consisting of 2.2 ml of DMEM/F-12 culture medium (Thermo Fisher Scientific, USA), 100 μl of Enzyme H solution (Miltenyi Biotec, Germany), 50 μl of Enzyme R solution (Miltenyi Biotec, Germany) and 12.5 μl of Enzyme A solution (Miltenyi Biotec, Germany) was added to the same tube. Then the tube was tightly closed with a lid and placed in gentleMACS Octo Dissociator (Miltenyi Biotec, Germany). For tissue dissociation, the “37C_h_TDK_3” program was used. […]
Organoids were diluted in Matrigel Growth Factor Reduced (GFR) Basement Membrane Matrix (Corning, USA) and seeded into 96-well plate (TPP, Switzerland). […] Relative number of cells was measured with MTS assay CellTiter 96 Aqueous One Solution Cell Proliferation Assay kit (Promega, USA) according to the manufacturer's instructions (FIG. 2). […]
A general note: Tetrazolium dyes change colour on reduction, which living cells bring about.

A short description of data set [3]: Clinical pharmacokinetics parameters of mFOLFOX6 active substances from published data. It counts as in vivo, Humans. The following applies: 5-fluorouracil bolus, sequence number 2, calculated to a dose of 400 mg/m^2 assuming linear kinetics. Here is the method: Pharmacokinetics parameters for all substances presented in Table 3 were identified based on published data. Substances of administration 1 (Oxaliplatin) and 2 (5-Fluorouracil) present simultaneously in the body, so time point of addition of 2 (5-Fluorouracil) was selected in a timeframe of selected incubation time for 1 (Oxaliplatin). Substances of administration 2 (5-Fluorouracil) and 3 (5-Fluorouracil) also present simultaneously in the body, so time point of addition of 3 (5-Fluorouracil) was selected in a timeframe of selected duration of exposure for 2 (5-Fluorouracil).

The conditions of data set [4]: cited from earlier work.
In data set [5] the test system is chemo-resistant metastatic CRC. The following applies: absence of genetic selection; cited from earlier work.
Setting [6] is: 5-fluorouracil continuous infusion, sequence number 3.
The mark [7] stands for this setting: oxaliplatin infusion, mFOLFOX6, sequence number 1.

Read-outs that look alike come from different tables or passages of the source. Marks after values point to notes of the source that are not given here.

The term GI50 denotes the concentration at which growth is held to half of that of the control. Low values mean greater sensitivity of the cells, high ones lower sensitivity of the cells. For orientation: Cmax means the peak of the concentration-time curve.

As for `Nc1nc2c(c(=O)[nH]1)N(C=O)C(CNc1ccc(C(=O)N[C@@H](CCC(=O)O)C(=O)O)cc1)CN2` (stereo partly shown) [Leucovorin, Leucovorin Calcium (Folinic Acid)], in data set [1], the “direct cytotoxic or cytostatic effect” value was “does not possess direct cytotoxic or cytostatic effect”.

Turning to `O=c1[nH]cc(F)c(=O)[nH]1` [5-Fluorouracil, 5-fluorouracil], in data set [2] (Example 3, FIG. 3b), the “sensitivity of organoids judged from GI50” value is listed as “sensitive”. The compound further returned a GI50 in data set [2] (Homo sapiens, Example 3, organoids from resected lung metastasis, 72 hours incubation) of 2260 nM. In addition, the Area under curve was 82.1* μM· in data set [3] and 156.4 µM in data set [4] (setting [6]). Moreover, the Cmax was 273 µM in data set [3] (human, in vivo, intravenous, 400 mg/m2) and 5.5 µM in data set [4] (setting [6]).

panitumumab: anti-EGFR therapy drug: the “patients responding to anti-EGFR therapy” value in data set [5] is 10%.

Regarding `O=C1[O][Pt]2([NH][C@@H]3CCCC[C@H]3[NH]2)[O]C1=O` [Oxaliplatin], in data set [4] (setting [7]), the Area under curve is 6.8 µM and the Cmax is 3.6 µM.

(Values after US20240036032A1, “PREDICTIVE IN VITRO ASSAY MIMICKING IN VIVO PHARMACOLOGY” (MIMI-Q GMBH, priority 2020, published 2024).)
